Holding throughout (type): cell-based
What all share (conditions): Homo sapiens, compound 5 hours at 37° C., 1% DMSO, percent vehicle fit to 4 parameter curve

One test concerns Aβ-40. Description: Aβ-40 level in conditioned media of 2B7 cells (MSD 3-PLEX ELISA). How it is done:
(§1) Assays were conducted to determine the ability of a Compound of Formula I to modulate […], and Aβ-38.
Human (6E10) Ab 3-PLEX elisa kits were purchased from Meso Scale Discovery Labs, 9328 Gaither Road, Gaithersburg, Md. 20877 (Catalog Number K15148E-3). Plates with capture antibodies were blocked for 1-2 hours at room temperature with 150 μL of the manufactures blocking reagent.
(§2) Cultured 2B7 cells in 96 well plate with 250 uL of media per well until confluent;
(§3) Prepared serial dilutions of compounds in DMSO at 100× the final desired concentration;
(§4) Washed wells with 2B7 cells 1× with 250 uL of media;
(§5) Diluted DMSO stocks 1:100 into media:
(§6) Added 250 μL of media containing compounds (1% DMSO) to wells with 2B7 cells for 5 hours at 37° C.
(§7) Diluted conditioned media: 1 part media with 1% DMSO and 1 part blocking buffer;
(§8) 150 μL of the 250 μL of conditioned media were used.
(§9) Standard Curve Sample Prep:
(§10) Prepared per manufacturer's protocol (see above)
(§11) Seven point standard curve samples were prepared that contained Aβ-42, Aβ-40, and Aβ-38. The highest concentration of Aβ-42 and Aβ-38 was 3,000 pg/mL and the highest concentration of Aβ-40 was 10,000 pg/mL. Subsequent serial dilutions were 1:3 and the final composition of each sample was 1 part blocking buffer and 1 part cell medium containing 1% DMSO.
(§12) Overnight Sample Incubation:
(§13) Blocked plates are washed 5× with MSD wash buffer with a plate washer
(§14) 25 uL of detection antibody and blocker G reagent in MSD blocking solution is added
(§15) 25 uL of samples (1 part conditioned media containing 1% DMSO and 1 part MSD blocking buffer) are then added.
(§16) plates are incubated overnight at 4 degrees C. or 2 hours at room temp
(§17) Wash wells 5× with MSD wash buffer
(§18) Added 150 μL 2×MSD read buffer
(§19) A-Beta peptide levels for each peptide are calculated from the standard curve using the MSD software provided with the MSD 2400 Imager. Percent vehicle values for each compound dosage were then calculated and fit to a 4 parameter curve generating IC50 values.
On the technique in general: ELISA stands for enzyme-linked immunosorbent assay.

The test system of the next test is Aβ-38. Description: Aβ-38 level in conditioned media of 2B7 cells (MSD 3-PLEX ELISA). How it is done: as §1
(§20) Plates with capture antibodies were blocked for 1-2 hours at room temperature with 150 μL of the manufactures blocking reagent.
as §2, §3, §4, §5, §6, §7, §8, §9, §10, §11, §12, §13, §14, §15, §16, §17, §18, §19

Another test relates to Aβ-42. Description: Aβ-42 level in conditioned media of 2B7 cells (MSD 3-PLEX ELISA). How it is done: as §1, §20, §2, §3, §4, §5, §6, §7, §8, §9, §10, §11, §12, §13, §14, §15, §16, §17, §18, §19

Results on 25 compounds are retold here after patent publication US20130060013A1, “Compounds useful for treating neurodegenerative disorders” (SATORI PHARMACEUTICALS, INC., priority 2011, published 2013).

For the compound `CCO[C@@H]([C@H]1C[C@@H](C)[C@H]2[C@H](O1)[C@H](O)[C@@]1(C)[C@@H]3CC[C@H]4C(C)(C)[C@@H](O[C@H]5CN(CC6CN(C)C6)CCO5)CCC45C[C@@]35CC[C@]21C)C(C)(C)OC` (some centres unmarked), the IC50 in the test with Aβ-40 was 1 to 10 µM; with Aβ-38 it was less than 1 µM; in the test on Aβ-42, less than 1 µM.
Turning to `CCO[C@@H]([C@H]1C[C@@H](C)[C@H]2[C@H](O1)[C@H](O)[C@@]1(C)[C@@H]3CC[C@H]4C(C)(C)C(O[C@H]5CN(CCNC(=O)CCOCCOCCNC(=O)CCCCC6SC[C@@H]7NC(=O)N[C@H]67)CCO5)CC[C@@]45CC35CC[C@]21C)C(C)(C)O` (some centres unmarked), the IC50 was greater than 10 µM with Aβ-40, 1 to 10 µM with Aβ-38 and 1 to 10 µM in the test with Aβ-42.
`CCO[C@@H]([C@H]1C[C@@H](C)[C@H]2[C@H](O1)[C@H](O)[C@@]1(C)[C@@H]3CC[C@H]4C(C)(C)C(O[C@H]5CN(CCCNCCCOCCOCCOCCCNC(=O)CCCCC6SC[C@@H]7NC(=O)N[C@H]67)CCO5)CC[C@@]45CC35CC[C@]21C)C(C)(C)O` (some centres unmarked): the IC50 was 1 to 10 µM in the test with Aβ-40, less than 1 µM in the test on Aβ-38 and less than 1 µM with Aβ-42.
Take `CO[C@@H](C1C[C@@H](C)[C@H]2C(O1)[C@H](O)[C@@]1(C)C3CC[C@H]4C(C)(C)[C@@H](O[C@H]5CN(C)CCO5)CC[C@@]45CC35CC[C@]21C)C(C)(C)O` (some centres unmarked): the IC50 with Aβ-40, in the test with Aβ-38 and in the test on Aβ-42 was 1 to 10 µM each time.
Take `CCO[C@@H]([C@H]1C[C@@H](C)[C@H]2[C@H](O1)[C@H](O)[C@@]1(C)[C@@H]3CC[C@H]4C(C)(C)[C@@H](OC(=O)C5CNC5)CCC45C[C@@]35CC[C@]21C)C(C)(C)O` (some centres unmarked): the values for the IC50 in the test with Aβ-40, in the test on Aβ-38 and in the test with Aβ-42 were 1 to 10 µM, less than 1 µM and less than 1 µM, respectively.
Turning to `CCO[C@@H]([C@H]1C[C@@H](C)[C@H]2[C@H](O1)[C@H](O)[C@@]1(C)[C@@H]3CC[C@H]4C(C)(C)[C@@H](OC(=O)[C@H]5CCCN5)CCC45C[C@@]35CC[C@]21C)C(C)(C)O` (some centres unmarked), the IC50 in the test on Aβ-40 is 1 to 10 µM; with Aβ-38, less than 1 µM; with Aβ-42, less than 1 µM.
As for `CCO[C@@H]([C@H]1C[C@@H](C)[C@H]2[C@H](O1)[C@H](O)[C@@]1(C)[C@@H]3CC[C@H]4C(C)(C)[C@@H](OC(=O)CN5CCOCC5)CCC45C[C@@]35CC[C@]21C)C(C)(C)O` (some centres unmarked), the IC50 in the test on Aβ-40 was 1 to 10 µM; in the test on Aβ-38 it was less than 1 µM; in the test on Aβ-42, less than 1 µM.
As to `CCO[C@@H]([C@H]1C[C@@H](C)[C@H]2[C@H](O1)[C@H](O)[C@@]1(C)[C@@H]3CC[C@H]4C(C)(C)[C@@H](OC(=O)[C@H]5CCCN5C)CCC45C[C@@]35CC[C@]21C)C(C)(C)O` (some centres unmarked), the IC50 is 1 to 10 µM with Aβ-40, less than 1 µM in the test with Aβ-38 and less than 1 µM in the test with Aβ-42.
On to `CCO[C@@H]([C@H]1C[C@@H](C)[C@H]2[C@H](O1)[C@H](O)[C@@]1(C)[C@@H]3CC[C@H]4C(C)(C)[C@@H](OC(=O)[C@@H]5C[C@@H](O)CN5C)CCC45C[C@@]35CC[C@]21C)C(C)(C)O` (some centres unmarked), for which the IC50 was 1 to 10 µM in the test with Aβ-40, less than 1 µM in the test with Aβ-38 and less than 1 µM with Aβ-42.
Take `CCO[C@@H]([C@H]1C[C@@H](C)[C@H]2[C@H](O1)[C@H](O)[C@@]1(C)[C@@H]3CC[C@H]4C(C)(C)[C@@H](OC(=O)C5CCN5C(=O)OC(C)(C)C)CCC45C[C@@]35CC[C@]21C)C(C)(C)O` (some centres unmarked): the figures for the IC50 in the test with Aβ-40, in the test on Aβ-38 and in the test with Aβ-42 were 1 to 10 µM, 1 to 10 µM and less than 1 µM, respectively.
In the case of `CCO[C@@H]([C@H]1C[C@@H](C)[C@H]2[C@H](O1)[C@H](O)[C@@]1(C)[C@@H]3CC[C@H]4C(C)(C)C(O[C@H]5CN(CCN(CCCOCCOCCOCCCNC(=O)CCCCC6SC[C@@H]7NC(=O)N[C@H]67)CCNC(=O)CCC6(C)N=N6)CCO5)CC[C@@]45CC35CC[C@]21C)C(C)(C)O` (some centres unmarked), the values for the IC50 in the test with Aβ-40 and with Aβ-42 were 1 to 10 µM and less than 1 µM, respectively.
On to `CCO[C@@H]([C@H]1C[C@@H](C)[C@H]2[C@H](O1)[C@H](O)[C@@]1(C)[C@@H]3CC[C@H]4C(C)(C)[C@@H](OC(=O)[C@@H]5COCCN5C(C)C)CCC45C[C@@]35CC[C@]21C)C(C)(C)O` (some centres unmarked), for which the IC50 in the test on Aβ-40 was greater than 10 µM; in the test with Aβ-38, 1 to 10 µM; with Aβ-42, less than 1 µM.
Taken in the same sequence, the figures for `CO[C@@H]([C@H]1C[C@@H](C)[C@H]2[C@H](O1)[C@H](O)[C@@]1(C)[C@@H]3CC[C@H]4C(C)(C)[C@@H](O[C@H]5CN(C6CNC6)CCO5)CCC45C[C@@]35CC[C@]21C)C(C)(C)O` (some centres unmarked) were 1 to 10 µM, less than 1 µM and less than 1 µM.
With `CCO[C@@H](C1C[C@@H](C)[C@H]2C(O1)[C@H](O)[C@@]1(C)C3CC[C@H]4C(C)(C)[C@@H](O[C@H]5CN(c6ncc(F)cn6)CCO5)CCC45C[C@@]35CC[C@]21C)C(C)(C)O` (some centres unmarked), the IC50 in the test on Aβ-38 and in the test with Aβ-42 was 1 to 10 µM in each case.
Turning to `CCO[C@@H]([C@H]1C[C@@H](C)[C@H]2[C@H](O1)[C@H](O)[C@@]1(C)[C@@H]3CC[C@H]4C(C)(C)[C@@H](O[C@H]5CN(CC(F)(F)F)CCO5)CCC45C[C@@]35CC[C@]21C)C(C)(C)O` (some centres unmarked), the IC50 with Aβ-38 and in the test with Aβ-42 was 1 to 10 µM throughout.
In the case of `CCO[C@@H]([C@H]1C[C@@H](C)[C@H]2[C@H](O1)[C@H](O)[C@@]1(C)[C@@H]3CC[C@H]4C(C)(C)[C@@H](O[C@H]5CN(Cc6cncs6)CCO5)CCC45C[C@@]35CC[C@]21C)C(C)(C)O` (some centres unmarked), the IC50 with Aβ-38 is 1 to 10 µM; in the test on Aβ-42, less than 1 µM.
As for `CC(=O)O[C@H]([C@H]1C[C@@H](C)[C@H]2[C@@H](O1)[C@@H](O)[C@@]1(C)[C@@H]3CC[C@H]4C(C)(C)[C@@H](O)CCC45C[C@@]35CC[C@]21C)C(C)(C)O` (some centres unmarked), the IC50 in the test with Aβ-40 and in the test on Aβ-42 was 1 to 10 µM in each case.
With `CCO[C@@H]([C@H]1C[C@@H](C)[C@H]2[C@H](O1)[C@H](O)[C@@]1(C)[C@@H]3CC[C@H]4C(C)(C)[C@@H](O[C@H]5CN(C6CN(S(C)(=O)=O)C6)CCO5)CCC45C[C@@]35CC[C@]21C)C(C)(C)O` (some centres unmarked), the IC50 with Aβ-38 and in the test on Aβ-42 was less than 1 µM each time.
As to `CCO[C@@H]([C@H]1C[C@@H](C)[C@H]2[C@H](O1)[C@H](O)[C@@]1(C)[C@@H]3CC[C@H]4C(C)(C)[C@@H](OC(=O)[C@@H]5CN(C(=O)OC(C)(C)C)CCO5)CCC45C[C@@]35CC[C@]21C)C(C)(C)O` (some centres unmarked), the IC50 in the test on Aβ-38 and in the test on Aβ-42 was less than 1 µM in each case.
Take `CNC1CN(C(=O)O[C@H]2CCC34C[C@]35CC[C@]3(C)[C@@H]6[C@H](O[C@@H]([C@H](OC)C(C)(C)O)C[C@H]6C)[C@H](O)[C@@]3(C)[C@@H]5CC[C@H]4C2(C)C)C1` (some centres unmarked): the IC50 is 1 to 10 µM with Aβ-38 and less than 1 µM in the test on Aβ-42.
As to `CCO[C@@H]([C@H]1C[C@@H](C)[C@H]2[C@H](O1)[C@H](O)[C@@]1(C)[C@@H]3CC[C@H]4C(C)(C)[C@@H](OC(=O)[C@H]5CN(C(=O)OC(C)(C)C)CCO5)CCC45C[C@@]35CC[C@]21C)C(C)(C)O` (some centres unmarked), the IC50 with Aβ-38 and in the test with Aβ-42 was 1 to 10 µM throughout.
Turning to `CCO[C@@H]([C@H]1C[C@@H](C)[C@H]2[C@H](O1)[C@H](O)[C@]1(C)[C@@H]3CC[C@H]4C(C)(C)[C@@H](O[C@H]5CN([C@H](C)C(=O)N6CCC6)CCO5)CC[C@@]45C[C@@]35CC[C@@]21C)C(C)(C)O`, the IC50 with Aβ-38 and in the test with Aβ-42 was less than 1 µM each time.
`CCO[C@@H]([C@H]1C[C@@H](C)[C@H]2[C@H](O1)[C@H](O)[C@@]1(C)[C@@H]3CC[C@H]4C(C)(C)[C@@H](O[C@H]5CN(Cc6nccs6)CCO5)CCC45C[C@@]35CC[C@]21C)C(C)(C)O` (some centres unmarked): the values for the IC50 in the test with Aβ-38 and with Aβ-42 were 1 to 10 µM and less than 1 µM, respectively.
Take `CC(C)[C@@H](OC(=O)N1CCC1)[C@H]1C[C@@H](C)[C@H]2[C@H](O1)[C@H](O)[C@@]1(C)[C@@H]3CC[C@H]4C(C)(C)[C@@H](O[C@H]5CN(C(=O)CNS(=O)(=O)C(F)(F)F)CCO5)CCC45C[C@@]35CC[C@]21C` (some centres unmarked): the IC50 with Aβ-38 was less than 1 µM; with Aβ-42, 1 to 10 µM.
Consider `CCO[C@@H]([C@H]1C[C@@H](C)[C@H]2[C@H](O1)[C@H](O)[C@@]1(C)[C@@H]3CC[C@H]4C(C)(C)[C@@H](OC(=O)[C@@H]5CN(C)CCO5)CC[C@@]45C[C@@]35CC[C@]21C)C(C)(C)O`, for which the IC50 with Aβ-38 was 1 to 10 µM; in the test with Aβ-42, less than 1 µM.

The IC50 is the concentration that gives 50% inhibition.
